# Counter-ions that a name gives are not always drawn.
# Tests used:
# [1] = target: T1, 5-HT7(b) receptor (Homo sapiens, UniProt P34969); experiment: saturation radioligand binding, membranes; settings: read-out: [^3H]-mesulergine / Kd; labelled compound; stable HEK293
# [2] = target: 5-HT7(d) receptor (Homo sapiens, UniProt P34969); experiment: saturation radioligand binding, membranes; settings: read-out: [^3H]-mesulergine / Kd; labelled compound; stable HEK293
# [3] = target: 5-HT7(a) receptor (Homo sapiens, UniProt P34969); experiment: saturation radioligand binding, membranes; settings: read-out: [^3H]-mesulergine / Kd; labelled compound; stable HEK293
# Sequence of 5-HT7(a) receptor (P34969 1-445 isoform P34969-2): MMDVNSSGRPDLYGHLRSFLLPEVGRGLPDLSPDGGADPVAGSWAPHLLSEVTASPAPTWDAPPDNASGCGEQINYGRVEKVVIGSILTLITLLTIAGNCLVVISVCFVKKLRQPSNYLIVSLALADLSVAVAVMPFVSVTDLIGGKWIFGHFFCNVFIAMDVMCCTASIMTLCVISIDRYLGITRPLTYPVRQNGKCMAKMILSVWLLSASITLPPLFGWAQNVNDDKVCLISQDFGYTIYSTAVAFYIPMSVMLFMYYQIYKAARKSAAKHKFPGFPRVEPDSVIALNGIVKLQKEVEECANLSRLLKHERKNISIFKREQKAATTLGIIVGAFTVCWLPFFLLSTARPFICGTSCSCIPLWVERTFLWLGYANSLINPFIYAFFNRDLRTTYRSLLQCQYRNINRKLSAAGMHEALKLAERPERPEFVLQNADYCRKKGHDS
# [4] = target: T1, 5-HT7(b) receptor
# T1 sequence (P34969 1-432 limits assumed): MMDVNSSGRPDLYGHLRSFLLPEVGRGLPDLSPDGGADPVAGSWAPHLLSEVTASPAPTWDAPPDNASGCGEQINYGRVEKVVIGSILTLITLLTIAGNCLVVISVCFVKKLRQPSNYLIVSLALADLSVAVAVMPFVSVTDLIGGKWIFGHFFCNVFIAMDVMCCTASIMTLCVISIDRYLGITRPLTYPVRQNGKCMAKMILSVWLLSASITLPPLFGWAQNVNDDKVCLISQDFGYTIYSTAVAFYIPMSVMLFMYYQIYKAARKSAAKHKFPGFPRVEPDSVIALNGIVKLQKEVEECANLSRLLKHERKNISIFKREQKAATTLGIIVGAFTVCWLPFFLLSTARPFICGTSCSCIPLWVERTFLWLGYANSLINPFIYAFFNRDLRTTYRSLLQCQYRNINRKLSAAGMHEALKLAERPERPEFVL
# Sequence of 5-HT7(d) receptor (P34969 whole entry): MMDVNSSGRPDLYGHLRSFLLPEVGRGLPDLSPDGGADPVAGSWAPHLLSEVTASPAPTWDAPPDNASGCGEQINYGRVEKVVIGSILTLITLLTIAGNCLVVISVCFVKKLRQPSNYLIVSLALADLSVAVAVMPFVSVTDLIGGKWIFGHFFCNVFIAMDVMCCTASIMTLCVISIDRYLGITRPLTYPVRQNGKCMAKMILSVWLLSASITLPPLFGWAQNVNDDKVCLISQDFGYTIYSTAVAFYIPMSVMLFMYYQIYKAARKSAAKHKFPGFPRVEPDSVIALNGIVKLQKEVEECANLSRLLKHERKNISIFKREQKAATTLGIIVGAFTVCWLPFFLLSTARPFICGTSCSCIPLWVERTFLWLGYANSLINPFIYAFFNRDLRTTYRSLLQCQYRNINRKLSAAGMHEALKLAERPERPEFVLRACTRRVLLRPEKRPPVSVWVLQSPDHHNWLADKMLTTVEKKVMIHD
structure (smiles),measurement,setting,value
"CN1C[C@@H](NS(=O)(=O)N(C)C)C[C@@H]2c3cccc4c3c(cn4C)C[C@H]21 [mesulergine, N′-[(8a)-1,6-dimethylergolin-8-yl]-N,N-dimethylsulfamide hydrochloride]",Kd,[1],6.2 ± 0.7 nM
same,Kd,[2],9.6 ± 1.2 nM
same,Kd,[3],9.2 ± 1.6 nM
same,pEC50,[4],8.7 ± 0.1
